Our source for the EC50 values is patent US20180147196A1, “PYRIDIN-3-YL ACETIC ACID DERIVATIVES AS INHIBITORS OF HUMAN IMMUNODEFICIENCY VIRUS REPLICATION” (priority 2015, published 2018).

The test relates to NL-RLuc virus. The test is described as follows: Inhibition of HIV replication (NL-RLuc virus in MT-2 cells, luciferase readout). It is filed as cell-based. As to conditions: Human immunodeficiency virus 1, MT2, 120 h. The text has this: Inhibition of HIV replication: A recombinant NL-RLuc proviral clone was constructed in which a section of the nef gene from NL4-3 was replaced with the Renilla Luciferase gene. This virus is fully infectious and can undergo multiple cycles of replication in cell culture. In addition, the luciferous reporter provides a simple and easy method for quantitating the extent of virus growth and consequently, the antiviral activity of test compounds. The plasmid pNLRLuc contains the proviral NL-Rluc DNA cloned into pUC18 at the Pvull site. The NL-RLuc virus was prepared by transfection of 293T cells with the plasmid pNLRLuc. Transfections were performed using the LipofectAMINE PLUS kit from Invitrogen (Carlsbad, Calif.) according to the manufacturer and the virus generated was titered in MT-2 cells. For susceptibility analyses, the titrated virus was used to infect MT-2 cells in the presence of compound, and after 5 days of incubation, cells were processed and quantitated for virus growth by the amount of expressed luciferase. Assay media was RPMI 1640 supplemented with 10% heat inactivated fetal bovine serum (FBS), 100 units/ml penicillin G/100 units/ml streptomycin, 10 mM HEPES buffer pH 7.55 and 2 mM L-glutamine. The results from at least 2 experiments were used to calculate the EC50 values. Luciferase was quantitated using the Dual Luciferase kit from Promega (Madison, Wis.). Susceptibility of viruses to compounds was determined by incubation in the presence of serial dilutions of the compound. The 50% effective concentration (EC50) was calculated by using the exponential form of the median effect equation where (Fa)=1/[1+(ED50/drug conc.)^m] (Johnson V A, Byington R T. Infectivity Assay. In Techniques in HIV Research. ed. Aldovini A, Walker BD. 71-76. New York: Stockton Press.1990). Activity equal to A refers to a compound having an EC50<100 nM, while B and C denote compounds having an EC50 between 100 nM and 1 uM (B) or >1 uM (C).

Like-named read-outs stand apart in the source and are kept apart here.

Turning to `Cc1nc(C)c([C@H](OC(C)(C)C)C(=O)O)c(N2CCC(C)(C)CC2)c1C1=CC(CCOc2ccc(F)cc2)C1` (stereo partly drawn) [Example 25, (2S)-2-(tert-Butoxy)-2-(4-(4,4-dimethylpiperidin-1-yl)-5-(3-(2-(4-fluorophenoxy)ethyl)cyclobut-1-en-1-yl)-2,6-dimethylpyridin-3-yl)acetic acid], the EC50 (read-out: Activity) was below 0.1 µM.

As to `Cc1nc(C)c([C@H](OC(C)(C)C)C(=O)O)c(N2CCC(C)(C)CC2)c1C` [Example 26, (S)-2-(tert-Butoxy)-2-(4-(4,4-dimethylpiperidin-1-yl)-2,5,6-trimethylpyridin-3-yl)acetic acid], the EC50 is below 0.1 µM (read-out: Activity) and 0.097 µM (read-out: EC50 μM).

On to `Cc1cc(N2CCC(C)(C)CC2)c([C@H](OC(C)(C)C)C(=O)O)c(C)n1` [Example 27, (S)-2-(tert-Butoxy)-2-(4-(4,4-dimethylpiperidin-1-yl)-2,6-dimethylpyridin-3-yl)acetic acid], for which, for the setting “read-out: Activity”, the EC50 is above 1 µM.

Consider `C=Cc1c(C)nc(C)c([C@H](OC(C)(C)C)C(=O)O)c1N1CCC(C)(C)CC1` [Example 28, (S)-2-(tert-Butoxy)-2-(4-(4,4-dimethylpiperidin-1-yl)-2,6-dimethyl-5-vinylpyridin-3-yl)acetic acid], for which the EC50 (read-out: Activity) lay in the range of 0.1 to 1 µM.

`CCc1c(C)nc(C)c([C@H](OC(C)(C)C)C(=O)O)c1N1CCC(C)(C)CC1` [Example 29, (S)-2-(tert-Butoxy)-2-(4-(4,4-dimethylpiperidin-1-yl)-5-ethyl-2,6-dimethylpyridin-3-yl)acetic acid]: the EC50 was below 0.1 µM (read-out: Activity) and 0.068 µM (read-out: EC50 μM).

For the compound `C/C=C/c1c(C)nc(C)c([C@H](OC(C)(C)C)C(=O)O)c1N1CCC(C)(C)CC1` [Example 30, (S,E)-2-(tert-Butoxy)-2-(4-(4,4-dimethylpiperidin-1-yl)-2,6-dimethyl-5-(prop-1-en-1-yl)pyridin-3-yl)acetic acid], where the note is “read-out: Activity”, the EC50 is 0.1 to 1 µM.

For the compound `Cc1nc(C)c([C@H](OC(C)(C)C)C(=O)O)c(N2CCC(C)(C)CC2)c1C1CC1` [Example 31, (S)-2-(tert-Butoxy)-2-(5-cyclopropyl-4-(4,4-dimethylpiperidin-1-yl)-2,6-dimethylpyridin-3-yl)acetic acid], the EC50 (read-out: Activity) is 0.1 to 1 µM and the EC50 (read-out: EC50 μM) worked out at 0.118 µM.

Take `Cc1ncc(C2=CCN(CCCc3ccc(F)cc3)CC2)c(N2CCC(C)(C)CC2)c1[C@H](OC(C)(C)C)C(=O)O` [Example 32, (S)-2-(tert-Butoxy)-2-(4-(4,4-dimethylpiperidin-1-yl)-1′-(3-(4-fluorophenyl)propyl)-6-methyl-1′,2′,3′,6′-tetrahydro-[3,4′-bipyridin]-5-yl)acetic acid]: the EC50 is below 0.1 µM (read-out: Activity) and 0.002 µM (read-out: EC50 μM).
